Results published in PubChem BioAssay (NCI).
Several values for one entry are separate records, joined by “and”; a condition that tells them apart may be missing. Equal values may be shown once.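 Five concentrations, 48 hours, 96-well plates. Abbreviation: GI50, concentration required for 50% inhibition of growth. At the TGI there is no net growth.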 Where a SMILES comes first, the peptide text is derived from it. [ ]: non-standard residue; d: D form. The star is where a group is joined. Bn2Val = CC(C)[C@@H](C(=O)*)N(Cc1ccccc1)Cc1ccccc1; NH(3,4-diMeO-benzyl) = COc1ccc(CN*)cc1OC; NMeV = CN[C@H](C(=O)O)C(C)C; dNMeA = CN[C@H](C)C(=O)O

Tests used:
Assay in all cases: NCI-60 cell line screen, 48 h
[1] = test system: SNB-78 CNS
[2] = test system: RXF-631 renal
[3] = test system: DMS 114 small cell lung
[4] = test system: LXFL 529 NSCLC
[5] = test system: KM20L2 colon
[6] = test system: DLD-1 colon
[7] = test system: DMS 273 small cell lung
[8] = test system: PC-3 prostate
[9] = test system: MDA-N

Row | Structure (SMILES) | TGI [1] [µM] | TGI [2] [µM] | TGI [3] [µM] | TGI [4] [µM] | TGI [5] [µM] | TGI [6] [µM] | TGI [7] [µM] | TGI [8] | TGI [9] | GI50 [8] [µM] | GI50 [9] [µM]
1 | COc1cc2c(cc1OC)C1C=NC(C(=O)O)(C2)c2ccccc21 (stereo not given) | > 100 | > 100 | > 100 | > 100 | > 100 | > 100 | > 100 | – | – | – | –
2 | COc1cc2c(NCCCCCCO[N+](=O)[O-])ncnc2c(OC)c1OC | – | – | – | – | – | – | – | 63.4 µM | 56.4 µM | – | –
3 | O=S(=O)(O)C(O)/C=C/c1ccccc1 (stereo not given) | – | – | > 100 | > 100 | > 100 | > 100 | > 100 | – | – | – | –
4 | NS(=O)(=O)c1ccc(-n2nc(-c3ccc(Br)cc3)ccc2=O)cc1 | – | – | – | – | – | – | – | > 10 µM | – | > 10 | –
5 | CN(C)CCNC(=O)c1cccc2nc3c(Cl)cccc3nc12 | – | > 100 | 12.1 | > 49.5 | 32.2 | 42.2 | > 100 | – | – | – | –
6 | COc1ccccc1NC(=O)c1ccc(/C=C/C(=O)c2nccn2C)cc1 | – | – | – | – | – | – | – | 1.65 µM | – | 0.628 | –
7 | COc1cc2c(c(OC)c1OC)-c1ccc(NCc3ccccc3)c(=O)cc1[C@@H](NC(C)=O)CC2 | – | – | – | – | – | – | – | 43.7 µM | – | 0.406 | –
8 | CN1CCN(Cc2ccc(NC(=O)c3cncc(C#Cc4cnc(N)c5ccccc45)c3)cc2C(F)(F)F)CC1 | – | – | – | – | – | – | – | 1.36 µM | – | 0.442 | –
9 | Cc1cc(C)nc(NS(=O)(=O)c2ccc(NC(=O)c3cccc4c(=O)c5ccccc5[nH]c34)cc2)n1 | 48.6 | > 100 | 35.2 | > 100 | 40.5 | 45.6 | 48.4 | – | – | – | –
10 | CNC(=O)c1cc(Oc2ccc3c(c2)sc2nc(-c4ccc(N)cc4)cn23)ccn1 | – | – | – | – | – | – | – | > 100 µM | – | 0.324 | –
11 | COc1nc2c(cc1S(=O)(=O)c1ccccc1)CCc1c-2cnn1-c1ccccc1Cl | – | – | – | – | – | – | – | > 100 µM | – | 3.09 | –
12 | C#CC(C)(C)Oc1cc(O)c2c(=O)c3ccccc3n(C)c2c1 | > 100 | > 100 | > 100 | > 100 | > 100 | – | > 100 | – | – | – | –
13 | COc1ccc(CN2CCCC(C(=O)c3ccc(C(F)(F)F)cc3)C2)c(O)c1 (stereo not given) | – | – | – | – | – | – | – | > 100 µM | – | 26.3 | –
14 | COC(=O)[C@@H](C)C[C@H](Cc1ccccc1)NC(=O)c1nc([C@@H](C[C@H](C(C)C)N(C)C(=O)[C@@H](NC(=O)[C@H]2CCCN2C)C(C)C)OC(C)=O)sc1C | – | – | – | – | – | – | – | > 25 µM | – | < 0.0025 | –
15 | CCOc1ccc2nc(NC(=O)/C(CC(=O)CC(C3=C(O)c4ccccc4CC3=O)c3ccccc3)=N\O)sc2c1 (stereo not given) | – | – | – | – | – | – | – | > 100 µM | > 100 µM | – | –
16 | COc1cc([C@@H]2c3cc4c(cc3[C@@H](NC(=O)c3cccc([N+](=O)[O-])c3)C3COC(=O)[C@@H]32)OCO4)cc(OC)c1O (stereo not given in full) | > 100 | 18.8 | – | > 100 | > 57.7 | > 67.9 | > 100 | – | – | – | –
17 | O=C1Oc2cc3c(c4cccc1c24)OCN(c1ccc(Cl)cc1)C3 | > 100 | – | > 57.2 | 25 | > 100 | > 54.2 | > 100 | – | – | – | –
18 | CCCNC(=O)OCc1c(COC(=O)NCCC)c(-c2ccc(Cl)c(Cl)c2)n2c1CCC2 | – | – | – | – | – | – | – | 28.4 µM | – | – | –

Row | Structure (SMILES) | TGI [1] [µM] | TGI [2] [µM] | TGI [3] [µM] | TGI [4] [µM] | TGI [5] [µM] | TGI [6] [µM] | TGI [7] [µM] | TGI [8] | TGI [9] | GI50 [8] [µM] | GI50 [9] [µM]
19 | COC(=O)c1c(OC)cccc1C(=O)O | > 100 | > 100 | > 100 | > 100 | > 100 | – | > 100 | – | – | – | –
20 | CCN1CCN(c2nc(NCCNc3ccnc4cc(Cl)ccc34)c3ccccc3n2)CC1 | – | – | – | – | – | – | – | 15.7 µM | – | 2.4 | –
21 | O=C1c2ccccc2C(=O)c2c1ccc1[nH]c(CCl)nc21 | – | – | – | – | – | – | – | 7.01 µM | – | 2.23 | –
22 | O=C(O)c1cc(S(=O)(=O)N=NC=C2c3ccccc3N(O)c3ccccc32)ccc1O | 96.5 | – | 50.8 | 28.6 | 63.6 | 64.6 | 34.6 | – | – | – | –
23 | S=C1NCCN1C1=Nc2ccccc2CO1 | – | – | – | – | – | – | – | > 100 µM | – | > 100 | –
24 | CN(C)c1ccc(/C=C2\C[N+](C)(C)C/C(=C\c3ccc(N(C)C)cc3)C2=O)cc1 | > 95.8 | – | 26.1 | 20.4 | 27.7 | > 100 | 18.5 | – | – | – | –
25 | CCCCCCCCCCCCCCC1OC(=O)c2ccccc21 (stereo not given) | > 100 | > 100 | 90.4 | > 100 | > 100 | > 100 | – | – | – | – | –
26 | COc1ccc(CNC(=O)[C@@H](C)N(C)C(=O)[C@@H]2CCCN2C(=O)[C@H](C(C)C)N(C)C(=O)[C@@H](NC(=O)[C@H](C(C)C)N(Cc2ccccc2)Cc2ccccc2)C(C)C)cc1OC (Bn2Val-V[NMeV]P[dNMeA]-{NH(3,4-diMeO-benzyl)}) | – | – | – | – | – | – | – | 26 µM and 24.5 µM | 20.2 µM and 24.9 µM | 5.61 | 11.7
27 | Cc1nc2nnc(C)n2c2c1C(=O)Nc1ccccc1N2 | > 100 | – | > 100 | > 100 | > 100 | > 100 | > 100 | – | – | – | –
28 | COc1ccc(CNC(=O)COc2ccc(/C=N/Nc3nc4ccccc4s3)cc2)cc1 | – | – | – | – | – | – | – | > 100 µM | – | 3.35 | –
29 | CC1CCC[P+](Cc2ccccc2)(c2ccccc2)CC1 (stereo not given) | > 100 | > 100 | 96.1 | > 100 | > 100 | > 100 | > 100 | – | – | – | –
30 | O=c1[nH]c(=O)n(C2CC(O)C(CO)O2)cc1C#Cc1c(F)c(F)c(F)c(F)c1F (stereo not given) | – | – | > 100 | > 100 | > 100 | > 100 | > 100 | – | – | – | –
31 | CC1=CCCC(OC(N)=O)C1 (stereo not given) | > 100 | > 100 | – | > 100 | > 100 | > 100 | > 100 | – | – | – | –
32 | CCC1CCC2CCCC(C)N12 (stereo not given) | – | > 100 | > 100 | > 100 | > 100 | > 100 | > 100 | – | – | – | –
33 | C[C@@H]1Cc2c([nH]c3ccccc23)[C@@H](c2c(F)cc(/C=C/C(=O)O)cc2F)N1CC(C)(C)F | – | – | – | – | – | – | – | 27.4 µM | – | 10.2 | –
34 | O=C1/C(=C/c2ccccc2)CN(C(=O)Oc2ccc(Cl)cc2)C/C1=C\c1ccccc1 | > 26.8 | – | 3.68 | 3.64 | 8.28 | 3.61 | 4.18 | – | – | – | –
35 | CN(C)c1ccc2c(c1)oc(=O)c1ccccc12 | – | – | – | – | – | – | – | 30.5 µM | 26.7 µM | – | –
